Here are results for 1 molecule from patent publication US20260364124A1, “ANTI-C. DIFFICILE SMALL MOLECULE METABOLITES FROM DIET AND GUT MICROBIOME” (The Children's Medical Center Corporation, priority 2023, published 2026).

The assay concerns B. uniformis. Description: In vitro aglycone liberation by wildtype B. uniformis (LC-MS). More on the design: species or system Bacteroides uniformis ATCC 8492. As to conditions: role: substrate; B. uniformis cultivated with polydatin (FIG. 2). The text has this: Comparative LC-MS EICs (Extracted Ion Chromatogram) of methanol-water extracts of bacterial cultures supplemented with each polyphenolic glycoside after eight hours are provided. The trace labeled “A” corresponds to the EIC of each glycoside, and the trace labeled “B” corresponds to the EIC of each aglycone. The portion of the trace “B” peak overlapping the trace “A” peak corresponds to the aglycone detected from fragmentation of the glycoside at the ionization source and is a technical artifact.
FIGS. 5A and 5B show microbiome-mediated polyphenol aglycone liberation. […] Step 2: Spent media was filter-sterilized. Step 3: C. difficile was grown in spent media from either vehicle or polydatin (top).
In vitro aglycone liberation: All B. uniformis strains were grown on brain-heart-infusion supplemented with hemin (50 mg/L) and vitamin K1 (0.25 mg/L) (BHIS) agar plates or in basal media (BSG; proteose peptone (20 g/L), yeast (5 g/L), NaCl (5 g/L), glucose (5 g/L), potassium phosphate dibasic (5 g/L), cysteine (0.5 g/L), hemin (50 mg/L), and vitamin K1 (0.25 mg/L). All isolates were recovered on and grown in pre-reduced media in a Coy anaerobic chamber (Coy Labs).
To assess the capacity of Bacteroides to liberate aglycones from their parent polyphenolic glycosides, B. uniformis ATCC 8492 WT and AgshD were recovered on a BHIS agar plate and incubated anaerobically at 37 °C for 48 h. A starter culture (1 mL) of BSG was inoculated with each isolate and grown for 15 h. This starter culture was then used to inoculate a BSG sub-culture (1 mL) at a final dilution of 1:10. […]
For polyphenolic glycoside and aglycone-containing samples, samples were dried under nitrogen flow and resuspended in 50 μl of methanol 50% in water. […] Samples were quantified on a QEplus mass spectrometer coupled to an Ultimate 3000 LC (Thermo fisher). […] Quantification was performed using Tracefinder (Thermo fisher), using the ratio of the area under the peak for each compound and of the internal standard, using the accurate mass of the [M−H]^− ions.

Take `OC[C@H]1O[C@@H](Oc2cc(O)cc(/C=C/c3ccc(O)cc3)c2)[C@H](O)[C@@H](O)[C@@H]1O` [polydatin]: the “liberation of resveratrol from polydatin” value is reported as “liberated resveratrol”.
